Test results: patent publication US8541603B2, “Substituted cyclopentanes or cyclopentanones as therapeutic agents” (Allergan, Inc., priority 2008, dated 2013)

Tested on: lashes and adjacent hairs of the eyelids
Experiment: Observation of lashes of glaucoma patients treated with bimatoprost in only one eye
Format: in vivo
Conditions: glaucoma patient treated in one eye only
Text: In the course of treating patients having glaucoma, treatment may only be appropriate in one eye. […] The lash appearance on the lids of the treated eyes would have appeared quite attractive if it represented a bilateral phenomenon. As a result of its asymmetric nature, the long lashes on one side could be construed as disturbing from a cosmetic standpoint. A systemic examination was preformed as a result of the asymmetric phenomenon. It soon became apparent that this altered appearance was not an isolated finding. […] Definite differences could be identified to varying degrees in the lashes and adjacent hairs of all patients who were taking the drug on a unilateral basis for longer than 6 months.
The changes in the lashes were apparent on gross inspection in several patients once attention was focused on the issue. In those with light colored hair and lashes, the differences were only seen easily with the aid of the high magnification and lighting capabilities of the slit lamp biomicroscope. In the course of glaucoma follow-up examination, attention is generally immediately focused on the eye itself. As a result of the high power magnification needed only one eye is seen at a time and the eye is seen at a high enough power that the lashes are not in focus. […]

SMILES: CCNC(=O)CCC/C=C\C[C@@H]1[C@@H](/C=C/[C@@H](O)CCc2ccccc2)[C@H](O)C[C@@H]1O [bimatoprost]
- lashes in the treated eye versus the non-treated eye: longer, thicker, and fuller
